Source: the kinase profiling compilation of Christmann-Franck et al. (2016)

Tests used:
Experiment in all cases: radiometric filter-binding kinase assay, Kinase HotSpot
Settings in all cases: compound 0.5 µM; ATP 10 µM
[1] = target: AKT1 (human) (UniProt P31749)
[2] = target: AKT3 (human) (UniProt Q9Y243)
[3] = target: BRSK2 (human) (UniProt Q8IWQ3)
[4] = target: CAMK2D (human) (UniProt Q13557)
[5] = target: CDC42BPA (human) (UniProt Q5VT25)
[6] = target: CDK1 CCNB1 (human) (UniProt P06493+P14635)
CDK1 CCNB1 (human), sequence (P06493 whole entry, looked up): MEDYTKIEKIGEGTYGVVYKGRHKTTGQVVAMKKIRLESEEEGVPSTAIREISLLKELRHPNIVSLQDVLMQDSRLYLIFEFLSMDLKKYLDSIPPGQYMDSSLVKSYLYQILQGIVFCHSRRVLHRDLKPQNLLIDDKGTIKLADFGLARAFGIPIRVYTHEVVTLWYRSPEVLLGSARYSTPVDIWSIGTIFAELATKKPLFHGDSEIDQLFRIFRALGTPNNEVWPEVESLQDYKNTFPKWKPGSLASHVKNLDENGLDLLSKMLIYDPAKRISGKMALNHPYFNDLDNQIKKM
CDK1 CCNB1 (human), sequence (P14635 whole entry, looked up): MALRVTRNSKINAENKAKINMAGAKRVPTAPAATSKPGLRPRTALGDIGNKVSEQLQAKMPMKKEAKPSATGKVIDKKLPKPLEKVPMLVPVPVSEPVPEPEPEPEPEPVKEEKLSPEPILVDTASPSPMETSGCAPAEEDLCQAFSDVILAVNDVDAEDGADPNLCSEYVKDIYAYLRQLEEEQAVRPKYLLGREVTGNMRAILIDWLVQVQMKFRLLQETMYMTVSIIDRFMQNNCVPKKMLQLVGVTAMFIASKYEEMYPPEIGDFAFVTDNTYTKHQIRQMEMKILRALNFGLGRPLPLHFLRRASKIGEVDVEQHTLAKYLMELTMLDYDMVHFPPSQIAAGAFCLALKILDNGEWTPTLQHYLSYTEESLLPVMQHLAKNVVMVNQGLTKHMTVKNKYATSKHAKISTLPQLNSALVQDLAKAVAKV

[7] = target: CDK2 CCNA2 (human) (UniProt P24941+P20248)
CDK2 CCNA2 (human), sequence (P20248 whole entry, looked up, other chains not shown): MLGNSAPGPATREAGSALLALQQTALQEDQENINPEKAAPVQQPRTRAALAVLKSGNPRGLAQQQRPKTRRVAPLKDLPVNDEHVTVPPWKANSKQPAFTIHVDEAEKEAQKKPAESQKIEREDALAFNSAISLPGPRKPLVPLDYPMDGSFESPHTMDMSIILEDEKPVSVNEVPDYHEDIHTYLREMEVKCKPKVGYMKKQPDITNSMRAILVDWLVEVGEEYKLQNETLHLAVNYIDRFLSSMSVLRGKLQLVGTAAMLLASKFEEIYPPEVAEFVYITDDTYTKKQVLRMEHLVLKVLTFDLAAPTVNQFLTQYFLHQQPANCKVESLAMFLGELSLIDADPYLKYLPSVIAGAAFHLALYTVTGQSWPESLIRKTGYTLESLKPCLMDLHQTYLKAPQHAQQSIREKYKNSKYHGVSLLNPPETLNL

[8] = target: CLK4 (human) (UniProt Q9HAZ1)
CLK4 (human), sequence (Q9HAZ1 whole entry, looked up): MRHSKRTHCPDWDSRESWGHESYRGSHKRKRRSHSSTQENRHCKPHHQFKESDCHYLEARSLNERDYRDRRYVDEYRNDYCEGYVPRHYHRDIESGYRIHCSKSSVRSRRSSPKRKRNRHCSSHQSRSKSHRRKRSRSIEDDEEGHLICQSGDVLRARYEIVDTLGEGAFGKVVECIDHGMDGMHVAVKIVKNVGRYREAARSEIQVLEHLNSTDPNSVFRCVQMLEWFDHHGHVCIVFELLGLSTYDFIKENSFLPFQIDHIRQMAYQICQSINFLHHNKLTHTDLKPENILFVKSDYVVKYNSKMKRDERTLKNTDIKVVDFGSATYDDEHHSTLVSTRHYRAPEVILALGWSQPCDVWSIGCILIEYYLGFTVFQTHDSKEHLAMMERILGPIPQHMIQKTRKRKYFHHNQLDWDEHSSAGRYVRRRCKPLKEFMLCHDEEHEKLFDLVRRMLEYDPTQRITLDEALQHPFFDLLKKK

[9] = target: CSNK1D (human) (UniProt P48730)
[10] = target: DAPK2 (human) (UniProt Q9UIK4)
[11] = target: EPHA3 (human) (UniProt P29320)
[12] = target: EPHA4 (human) (UniProt P54764)
EPHA4 (human), sequence (P54764 whole entry, looked up): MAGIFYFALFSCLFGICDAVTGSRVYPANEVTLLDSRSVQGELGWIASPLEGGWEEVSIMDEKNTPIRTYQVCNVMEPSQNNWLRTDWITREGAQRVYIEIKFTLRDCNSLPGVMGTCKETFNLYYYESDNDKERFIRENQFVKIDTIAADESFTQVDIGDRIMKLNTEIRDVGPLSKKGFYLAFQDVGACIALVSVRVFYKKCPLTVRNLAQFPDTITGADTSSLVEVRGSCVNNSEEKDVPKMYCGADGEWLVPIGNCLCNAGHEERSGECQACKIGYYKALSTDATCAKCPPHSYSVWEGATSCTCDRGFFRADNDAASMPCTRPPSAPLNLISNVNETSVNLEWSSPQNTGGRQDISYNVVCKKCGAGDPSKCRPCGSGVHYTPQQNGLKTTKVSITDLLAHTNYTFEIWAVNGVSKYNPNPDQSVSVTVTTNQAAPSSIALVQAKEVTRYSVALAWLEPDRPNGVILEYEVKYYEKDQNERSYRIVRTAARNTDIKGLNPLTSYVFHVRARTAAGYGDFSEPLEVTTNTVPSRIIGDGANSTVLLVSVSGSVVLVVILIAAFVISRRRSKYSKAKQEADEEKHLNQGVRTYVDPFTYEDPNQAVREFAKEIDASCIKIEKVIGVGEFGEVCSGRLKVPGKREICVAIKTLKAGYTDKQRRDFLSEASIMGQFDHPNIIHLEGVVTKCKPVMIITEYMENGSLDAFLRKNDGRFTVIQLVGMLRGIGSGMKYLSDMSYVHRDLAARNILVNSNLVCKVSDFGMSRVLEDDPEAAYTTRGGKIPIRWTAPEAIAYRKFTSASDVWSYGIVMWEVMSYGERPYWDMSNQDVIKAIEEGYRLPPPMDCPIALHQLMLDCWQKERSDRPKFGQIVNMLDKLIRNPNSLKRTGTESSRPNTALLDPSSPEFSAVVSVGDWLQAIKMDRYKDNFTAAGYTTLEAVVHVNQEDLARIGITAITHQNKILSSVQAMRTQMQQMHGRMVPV

[13] = target: EPHA6 (human) (UniProt Q9UF33)
[14] = target: FGFR1 (human) (UniProt P11362)
FGFR1 (human), sequence (P11362 whole entry, looked up): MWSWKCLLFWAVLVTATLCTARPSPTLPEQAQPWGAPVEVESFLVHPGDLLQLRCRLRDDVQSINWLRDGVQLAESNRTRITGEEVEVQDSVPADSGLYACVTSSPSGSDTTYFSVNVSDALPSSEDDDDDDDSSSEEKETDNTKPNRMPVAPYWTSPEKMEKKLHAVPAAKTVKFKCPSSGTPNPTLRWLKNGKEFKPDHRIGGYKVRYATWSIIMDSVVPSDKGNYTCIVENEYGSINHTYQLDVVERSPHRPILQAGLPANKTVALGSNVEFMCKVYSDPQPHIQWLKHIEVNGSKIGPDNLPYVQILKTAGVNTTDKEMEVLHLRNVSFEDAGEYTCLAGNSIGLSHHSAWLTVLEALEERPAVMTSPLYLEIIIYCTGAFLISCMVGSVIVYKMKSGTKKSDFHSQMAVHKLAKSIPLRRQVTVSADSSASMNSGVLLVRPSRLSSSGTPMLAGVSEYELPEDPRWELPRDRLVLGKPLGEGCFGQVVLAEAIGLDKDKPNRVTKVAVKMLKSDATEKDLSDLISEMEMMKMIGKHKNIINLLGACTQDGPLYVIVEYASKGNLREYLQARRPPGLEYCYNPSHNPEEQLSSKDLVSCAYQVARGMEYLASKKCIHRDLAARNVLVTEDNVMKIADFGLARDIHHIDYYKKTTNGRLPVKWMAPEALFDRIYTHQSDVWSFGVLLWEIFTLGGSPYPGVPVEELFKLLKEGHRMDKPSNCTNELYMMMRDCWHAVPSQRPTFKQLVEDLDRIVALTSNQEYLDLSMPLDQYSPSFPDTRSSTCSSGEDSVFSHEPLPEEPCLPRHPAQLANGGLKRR

[15] = system: FLT4 (human), P35916 [Q890H]
[16] = target: GSG2 (human) (UniProt Q8TF76)
[17] = target: HIPK1 (human) (UniProt Q86Z02)
[18] = target: IGF1R (human) (UniProt P08069)
[19] = target: INSR (human) (UniProt P06213)
[20] = target: ITK (human) (UniProt Q08881)
[21] = target: JAK1 JH1 catalytic (human) (UniProt P23458)
[22] = target: MAP2K1 (human) (UniProt Q02750)
[23] = target: MAP3K10 (human) (UniProt Q02779)
[24] = target: MAP3K11 (human) (UniProt Q16584)
[25] = target: MAPK11 (human) (UniProt Q15759)
[26] = target: MAPK8 (human) (UniProt P45983)
[27] = target: MAPKAPK2 (human) (UniProt P49137)
[28] = target: MAPKAPK5 (human) (UniProt Q8IW41)
[29] = target: MARK1 (human) (UniProt Q9P0L2)
[30] = target: MINK1 (human) (UniProt Q8N4C8)
[31] = target: NEK9 (human) (UniProt Q8TD19)
[32] = target: PAK1 (human) (UniProt Q13153)
PAK1 (human), sequence (Q13153 whole entry, looked up): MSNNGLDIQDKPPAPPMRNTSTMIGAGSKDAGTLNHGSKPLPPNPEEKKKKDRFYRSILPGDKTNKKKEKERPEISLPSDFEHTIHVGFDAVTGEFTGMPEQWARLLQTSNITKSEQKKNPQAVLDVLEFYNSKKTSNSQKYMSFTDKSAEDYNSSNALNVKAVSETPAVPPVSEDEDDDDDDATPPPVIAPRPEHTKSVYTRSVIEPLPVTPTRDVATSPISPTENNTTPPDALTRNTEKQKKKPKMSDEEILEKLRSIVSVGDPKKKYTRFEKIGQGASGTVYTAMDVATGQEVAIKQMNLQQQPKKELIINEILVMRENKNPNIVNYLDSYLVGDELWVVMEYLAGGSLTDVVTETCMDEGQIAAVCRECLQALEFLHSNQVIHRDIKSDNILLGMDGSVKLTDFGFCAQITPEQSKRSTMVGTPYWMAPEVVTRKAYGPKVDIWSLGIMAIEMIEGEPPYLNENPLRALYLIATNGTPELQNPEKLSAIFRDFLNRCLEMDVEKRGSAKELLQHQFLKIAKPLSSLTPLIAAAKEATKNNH

[33] = target: PDPK1 (human) (UniProt O15530)
[34] = target: PHKG1 (human) (UniProt Q16816)
PHKG1 (human), sequence (Q16816 whole entry, looked up): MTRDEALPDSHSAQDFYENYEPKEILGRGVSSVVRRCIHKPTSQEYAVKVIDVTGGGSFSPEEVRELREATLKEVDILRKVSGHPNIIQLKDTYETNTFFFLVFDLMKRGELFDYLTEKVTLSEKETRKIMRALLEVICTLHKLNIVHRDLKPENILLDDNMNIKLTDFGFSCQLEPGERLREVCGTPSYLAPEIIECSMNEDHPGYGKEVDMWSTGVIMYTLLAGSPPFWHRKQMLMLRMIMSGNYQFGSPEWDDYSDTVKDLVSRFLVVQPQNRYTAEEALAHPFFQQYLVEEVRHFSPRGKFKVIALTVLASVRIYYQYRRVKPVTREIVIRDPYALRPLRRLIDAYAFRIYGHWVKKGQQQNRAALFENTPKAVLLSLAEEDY

[35] = target: PKN2 (human) (UniProt Q16513)
[36] = target: RPS6KA5 KD2 (human) (UniProt O75582)
[37] = target: SRC (human) (UniProt P12931)
[38] = target: STK38 (human) (UniProt Q15208)
[39] = target: TLK2 (human) (UniProt Q86UE8)
[40] = target: TXK (human) (UniProt P42681)
TXK (human), sequence (P42681 whole entry, looked up): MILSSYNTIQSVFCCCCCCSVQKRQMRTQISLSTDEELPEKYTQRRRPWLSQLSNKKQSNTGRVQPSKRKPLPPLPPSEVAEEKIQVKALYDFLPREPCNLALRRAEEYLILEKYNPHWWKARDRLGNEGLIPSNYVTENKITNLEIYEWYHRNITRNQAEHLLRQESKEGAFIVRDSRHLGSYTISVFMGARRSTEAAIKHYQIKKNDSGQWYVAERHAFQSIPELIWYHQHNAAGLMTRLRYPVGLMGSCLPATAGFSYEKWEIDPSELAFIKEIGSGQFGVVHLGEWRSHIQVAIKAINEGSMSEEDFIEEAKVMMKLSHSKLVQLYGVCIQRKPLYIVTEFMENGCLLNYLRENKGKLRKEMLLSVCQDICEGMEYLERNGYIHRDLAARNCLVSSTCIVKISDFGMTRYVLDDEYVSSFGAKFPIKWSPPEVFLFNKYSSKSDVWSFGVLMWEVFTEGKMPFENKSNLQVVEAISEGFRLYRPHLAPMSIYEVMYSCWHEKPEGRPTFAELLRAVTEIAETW

[41] = target: ULK3 (human) (UniProt Q6PHR2)

CS(=O)(=O)CCNCc1ccc(-c2ccc3ncnc(Nc4ccc(OCc5cccc(F)c5)c(Cl)c4)c3c2)o1
residual activity [1]: 95.6% | residual activity [2]: 83.5% | residual activity [3]: 106% | residual activity [4]: 92.5% | residual activity [5]: 88.2% | residual activity [6]: 100% | residual activity [7]: 94.5% | residual activity [8]: 115% | residual activity [9]: 91.2% | residual activity [10]: 103% | residual activity [11]: 98.2% | residual activity [12]: 101% | residual activity [13]: 115% | residual activity [14]: 102% | residual activity [15]: 93.3% | residual activity [16]: 66.5% | residual activity [17]: 97.1% | residual activity [18]: 87.4% | residual activity [19]: 105% | residual activity [20]: 98.3% | residual activity [21]: 98% | residual activity [22]: 105% | residual activity [23]: 108% | residual activity [24]: 106% | residual activity [25]: 101% | residual activity [26]: 91.9% | residual activity [27]: 94.7% | residual activity [28]: 92.8% | residual activity [29]: 149% | residual activity [30]: 111% | residual activity [31]: 100% | residual activity [32]: 110% | residual activity [33]: 86.4% | residual activity [34]: 95.7% | residual activity [35]: 92% | residual activity [36]: 98.3% | residual activity [37]: 102% | residual activity [38]: 101% | residual activity [39]: 83.9% | residual activity [40]: 110% | residual activity [41]: 106%

Cc1nc(-c2ccccc2)c(-c2ccncc2)o1
residual activity [1]: 102% | residual activity [2]: 106% | residual activity [3]: 95% | residual activity [4]: 94.2% | residual activity [5]: 91.9% | residual activity [6]: 90.8% | residual activity [7]: 104% | residual activity [8]: 121% | residual activity [9]: 44% | residual activity [10]: 106% | residual activity [11]: 109% | residual activity [12]: 112% | residual activity [13]: 95.9% | residual activity [14]: 90.9% | residual activity [15]: 108% | residual activity [16]: 87.6% | residual activity [17]: 102% | residual activity [18]: 99.9% | residual activity [19]: 85.6% | residual activity [20]: 97.1% | residual activity [21]: 103% | residual activity [22]: 90.7% | residual activity [23]: 101% | residual activity [24]: 98.7% | residual activity [25]: 101% | residual activity [26]: 99.5% | residual activity [27]: 101% | residual activity [28]: 99.2% | residual activity [29]: 92.5% | residual activity [30]: 97.9% | residual activity [31]: 97.2% | residual activity [32]: 98.7% | residual activity [33]: 96.9% | residual activity [34]: 96.1% | residual activity [35]: 93.4% | residual activity [36]: 107% | residual activity [37]: 96.2% | residual activity [38]: 97.3% | residual activity [39]: 110% | residual activity [40]: 99.4% | residual activity [41]: 94.3%

COc1ccc(S(=O)(=O)N(CCO)c2ccccc2CN(C)C/C=C/c2ccc(Cl)cc2)cc1
residual activity [1]: 106% | residual activity [2]: 105% | residual activity [3]: 103% | residual activity [4]: 91.8% | residual activity [5]: 100% | residual activity [6]: 105% | residual activity [7]: 99.7% | residual activity [8]: 96% | residual activity [9]: 102% | residual activity [10]: 107% | residual activity [11]: 102% | residual activity [12]: 99.2% | residual activity [13]: 95.3% | residual activity [14]: 99.5% | residual activity [15]: 91% | residual activity [16]: 95.3% | residual activity [17]: 106% | residual activity [18]: 103% | residual activity [19]: 103% | residual activity [20]: 97.1% | residual activity [21]: 111% | residual activity [22]: 94.3% | residual activity [23]: 92.4% | residual activity [24]: 99.3% | residual activity [25]: 103% | residual activity [26]: 104% | residual activity [27]: 102% | residual activity [28]: 100% | residual activity [29]: 98.4% | residual activity [30]: 98.1% | residual activity [31]: 91.9% | residual activity [32]: 96% | residual activity [33]: 93.7% | residual activity [34]: 95.4% | residual activity [35]: 101% | residual activity [36]: 103% | residual activity [37]: 92.7% | residual activity [38]: 98.3% | residual activity [39]: 96.6% | residual activity [40]: 95.6% | residual activity [41]: 106%

Cc1cncc2cccc(S(=O)(=O)N3CCCN(C(=O)CN)C[C@H]3C)c12
residual activity [1]: 104% | residual activity [2]: 98.8% | residual activity [3]: 85.4% | residual activity [4]: 108% | residual activity [5]: 95.1% | residual activity [6]: 96.9% | residual activity [7]: 98.4% | residual activity [8]: 105% | residual activity [9]: 107% | residual activity [10]: 103% | residual activity [11]: 98.7% | residual activity [12]: 99.9% | residual activity [13]: 92.2% | residual activity [14]: 85.7% | residual activity [15]: 113% | residual activity [16]: 99.4% | residual activity [17]: 99.1% | residual activity [18]: 110% | residual activity [19]: 88.9% | residual activity [20]: 97.2% | residual activity [21]: 108% | residual activity [22]: 94.9% | residual activity [23]: 105% | residual activity [24]: 98.4% | residual activity [25]: 101% | residual activity [26]: 98.8% | residual activity [27]: 103% | residual activity [28]: 94.2% | residual activity [29]: 89.7% | residual activity [30]: 97.2% | residual activity [31]: 98.6% | residual activity [32]: 98.1% | residual activity [33]: 97.8% | residual activity [34]: 65.3% | residual activity [35]: 74.7% | residual activity [36]: 100% | residual activity [37]: 93.6% | residual activity [38]: 97.1% | residual activity [39]: 97.7% | residual activity [40]: 103% | residual activity [41]: 83.2%

O=C1c2ccccc2-c2nc3nnnn3nc21
residual activity [1]: 79.7% | residual activity [2]: 81.2% | residual activity [3]: 66.7% | residual activity [4]: 93% | residual activity [5]: 91.6% | residual activity [6]: 48% | residual activity [7]: 70.3% | residual activity [8]: 78.3% | residual activity [9]: 86.8% | residual activity [10]: 83.4% | residual activity [11]: 81.6% | residual activity [12]: 61.1% | residual activity [13]: 106% | residual activity [14]: 24.2% | residual activity [15]: 5.79% | residual activity [16]: 79.2% | residual activity [17]: 99.3% | residual activity [18]: 91.1% | residual activity [19]: 32.3% | residual activity [20]: 71.5% | residual activity [21]: 101% | residual activity [22]: 88.7% | residual activity [23]: 94.6% | residual activity [24]: 69% | residual activity [25]: 101% | residual activity [26]: 78.3% | residual activity [27]: 104% | residual activity [28]: 66.9% | residual activity [29]: 98.2% | residual activity [30]: 91.2% | residual activity [31]: 119% | residual activity [32]: 96.1% | residual activity [33]: 79% | residual activity [34]: 92.5% | residual activity [35]: 77.1% | residual activity [36]: 68.7% | residual activity [37]: 80.4% | residual activity [38]: 46.6% | residual activity [39]: 100% | residual activity [40]: 90.8% | residual activity [41]: 103%
